The results in this text go back to ChEMBL document CHEMBL2417511, “Probes for narcotic receptor mediated phenomena. 48. C7- and C8-substituted 5-phenylmorphan opioids from diastereoselective alkylation” (Eur J Med Chem, 2013).

Holding throughout (type): cell-based
Experiment [1] concerns the target Kappa-type opioid receptor (Homo sapiens, UniProt P41145). Put plainly: Displacement of [3H]U69,593 from human kappa opioid receptor expressed in CHO cells after 2 hrs by liquid scintillation counting.
In experiment [2] the target is Delta-type opioid receptor (Homo sapiens, UniProt P41143). Put plainly: Displacement of [3H]DADLE from human delta opioid receptor expressed in CHO cells after 2 hrs by liquid scintillation counting.
Delta-type opioid receptor, sequence (P41143 whole entry): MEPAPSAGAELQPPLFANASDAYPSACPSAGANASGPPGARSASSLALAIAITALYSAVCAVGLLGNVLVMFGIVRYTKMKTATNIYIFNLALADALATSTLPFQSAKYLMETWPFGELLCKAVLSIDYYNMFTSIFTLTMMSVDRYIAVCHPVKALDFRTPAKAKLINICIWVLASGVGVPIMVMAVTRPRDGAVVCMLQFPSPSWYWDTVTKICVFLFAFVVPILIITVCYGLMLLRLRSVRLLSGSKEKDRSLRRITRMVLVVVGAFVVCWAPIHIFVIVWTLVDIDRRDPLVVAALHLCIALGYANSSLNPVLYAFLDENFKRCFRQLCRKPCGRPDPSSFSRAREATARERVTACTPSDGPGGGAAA
In the next experiment the target is Mu-type opioid receptor (Homo sapiens, UniProt P35372). Nature of the experiment: Displacement of [3H]DAMGO from human mu opioid receptor expressed in CHO cells after 2 hrs by liquid scintillation counting.
Mu-type opioid receptor, sequence (P35372 whole entry): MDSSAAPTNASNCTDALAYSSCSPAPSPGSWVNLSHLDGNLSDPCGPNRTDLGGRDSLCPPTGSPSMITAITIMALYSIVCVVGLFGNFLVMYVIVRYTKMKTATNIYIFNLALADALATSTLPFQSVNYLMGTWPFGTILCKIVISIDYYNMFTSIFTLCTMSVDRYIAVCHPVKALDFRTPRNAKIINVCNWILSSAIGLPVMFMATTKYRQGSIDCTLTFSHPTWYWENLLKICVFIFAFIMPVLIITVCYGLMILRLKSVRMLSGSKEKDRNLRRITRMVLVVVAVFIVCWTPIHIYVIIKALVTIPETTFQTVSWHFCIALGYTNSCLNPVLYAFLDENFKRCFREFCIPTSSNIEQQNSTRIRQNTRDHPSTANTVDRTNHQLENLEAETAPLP

Kappa-type opioid receptor, sequence (P41145 whole entry): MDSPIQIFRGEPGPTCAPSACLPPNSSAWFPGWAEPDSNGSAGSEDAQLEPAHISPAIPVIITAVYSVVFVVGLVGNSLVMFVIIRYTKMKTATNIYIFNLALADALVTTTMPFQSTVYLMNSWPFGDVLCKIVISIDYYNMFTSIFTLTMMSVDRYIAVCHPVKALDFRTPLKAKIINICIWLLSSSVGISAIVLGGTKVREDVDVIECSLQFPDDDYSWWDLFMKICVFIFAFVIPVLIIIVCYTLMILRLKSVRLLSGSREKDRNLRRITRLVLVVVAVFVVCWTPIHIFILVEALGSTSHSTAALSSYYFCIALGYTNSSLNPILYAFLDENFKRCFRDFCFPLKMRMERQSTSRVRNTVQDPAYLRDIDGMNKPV

For the compound `CN1CC[C@]2(c3cccc(O)c3)C[C@H](O)C[C@@H]1C2`, the Ki is 1230 nM in experiment [1], 1960 nM in experiment [2] and 22 nM at Mu-type opioid receptor.
